Entries after “also recorded” stand apart in the source; their conditions may differ. Ends that are not written are not given here.
Legend:
[1] = Tissue distribution of C14 radiolabeled D-TAT-tagged peptides; assay type: in vivo, mouse; conditions: 1 mg/kg s.c., i.v., i.p.; 72 hours after injection
Procedure: Mice were treated via three different routes of administration (s.c., i.v., i.p.) with radiolabeled peptides with C^14 (1 mg/kg). Animals were sacrificed 72 hours after injection and processed for immunoradiography. […] This illustrates that the transporter D-TAT is responsible for the tissue distribution.

[2] = test system: bleomycin induced lung fibrosis; assay: Bleomycin (BLM) induced lung fibrosis; assay type: in vivo, C57BL/6 mice; conditions: for cell recruitment in bronchoalveolar lavage space: 3 times in 10 days
Source text: In order to determine the activity of the exemplary all-D retro-inverso IB(s) peptide XG-102 (SEQ ID NO: 233) in the treatment of Chronic Obstructive Pulmonary Disease (COPD) XG-102 (SEQ ID NO: 233) is used in an animal model of Bleomycin induced acute lung inflammation and fibrosis. The protocol of bleomycin induced inflammation and fibrosis has been described before in the literature. The aim of the Experiment was to investigate the effect of XG-102 (SEQ ID NO: 233) by subcutaneous (s.c.) route on neutrophil recruitment in broncho alveolar lavage (BAL) and lung in bleomycin induced inflammation and fibrosis: • at 1 day after a single bleomycin administration (10 mg/kg) • and at day 10 with the development of fibrosis
1) Method and Experimental Approach • The test compound XG-102 (SEQ ID NO: 233) at two doses and vehicle control were given s.c. with a single intranasal administration of bleomycin and mice were analyzed after 1 and 10 days. The animals used in the model were 10 C57BL/6 mice (8 weeks old) per group. The experimental groups included vehicle, 0.001 mg/kg XG-102 (SEQ ID NO: 233) and 0.1 mg/kg XG-102 (SEQ ID NO: 233), and the treatment consisted of repeated sub-cutaneous administration of XG-102 (SEQ ID NO: 233), prior to bleomycin administration then every 3 days. Acute lung inflammation at 24 h was monitored by BAL lavage, cytology, cell counts, and lung myeloperoxidase activity. The effect of the compound was compared with vehicle controls. Lung fibrosis was assessed histologically using hematoxylin and eosin staining at day 10 after the single dose of bleomycin.
1.1) Bleomycin Administration • Bleomycin sulfate in saline (10 mg/kg body weight) from Bellon Laboratories (Montrouge, France) or saline were given through the airways by nasal instillation in a volume of 40 μL under light ketamine-xylasine anesthesia. […]
1.4) Cell Count and Determination • Total cell count was determined in BAL fluid using a Malassez hemocytometer. […]

[3] = test system: db/db mice; assay: db/db mice model of type 2 diabetes, chronic treatment; assay type: in vivo, mouse; conditions: 10 mg/kg

Substance: dqsrpvqpflnIttprkprpprrrqrrkkrg (DQSRPVQPFLNLTTPRKPRPPRRRQRRKKRG; not fully specified (some residues); printed as dqsrpvqpflnIttprkprpprrrqrrkkrg) [XG-102]
- tissue distribution (accumulation) [1]: in the liver, spleen, and bone marrow predominantly
- cell recruitment in bronchoalveolar lavage space ([2]; 0.001 mg/kg s.c.): reduced significantly the lymphocyte recruitment and the number of total cells recruited; also recorded: decreases the Bleomycin-induced later inflammation
- histology: inflammatory cells accumulation, fibrotic areas, loss of lung architecture ([2]; 0.001 mg/kg, day 10): A decrease of these parameters was observed; also recorded: attenuates the Bleomycin-induced fibrosis
- cell recruitment in bronchoalveolar lavage space ([2]; 0.1 mg/kg s.c.): had no effect
- plasma levels of insulin, MCP-1, IL-6, tPAI-1, TNF ([3]; day 57, 77 and 108): no significant effects
- plasma resistin ([3]; day 77 and 108): significantly higher
- 24 hour food and water intake, urine and faeces production (metabolic cages) ([3]; study day 68): no significant effects

— patent publication US10023615B2, “Efficient transport into white blood cells” (priority 2008, dated 2018)
